Assay results published in US11292807B2 (OCEANS LTD., priority 2015, dated 2022).
Like-named read-outs stand apart in the source and are kept apart here.

Legend:
[1] = system: THP-1 (acute monocytic leukemia); experiment: CIMA assay, cell viability, THP-1; conditions: for Fold change in viability AVG: THP-1
in vitro = conditions: human, Average cell viability
A549 (lung carcinoma) = experiment: CIMA assay (colorimetric indicator of metabolic activity), cell viability, A549; conditions: for Fold change in viability AVG: A549
Experimental: Stock solutions of the extracts were prepared in dimethylsulfoxide (DMSO) at 10 mg/mL and stored in 200 μl aliquots at −20° C. until analysis. This preparation ensured that the DMSO delivered to cells in culture never exceeded 1%.
Prepared extracts were assessed following chronic exposure conditions in which cells were seeded at 2×10^3 cells/well (96 well-plate) and incubated with test compounds for 72 h. Each compound was evaluated over a range of concentrations (0, 10, 25, 50 or 100 μg/ml). Cell proliferation was initially assessed using a standard colorimetric indicator of metabolic activity (CIMA) assay. In this assay, tetrazole reduction was evaluated as a measure of metabolic function that evaluates mitochondrial activity to determine the extent of cell proliferation within a culture. This assay is based on the reduction of yellow tetrazolium salt to purple formazan by mitochondrial reductases enzyme in viable cells, resulting in a color changed that confers a change in absorbance.

[2] = system: U373 (glioblastoma-astrocytoma); experiment: CIMA assay, cell viability, U373; conditions: for Fold change in viability AVG: U373
[3] = system: SKOV3 (ovarian adenocarcinoma); experiment: CIMA assay, cell viability, SKOV3; conditions: for Fold change in viability AVG: SKOV
MDA-MB [4] = conditions: MDA-MB
MDA-MB [5] = experiment: cells; conditions: Homo sapiens, read-out: Average cell viability, MDA-MB
PC3 = experiment: CIMA assay, cell viability, PC3; conditions: for Fold change in viability AVG: PC3
[6] = system: CCD1079SK (fibroblast, noncancerous but proliferating); experiment: CIMA assay, cell viability, CCD1079SK; conditions: CCD

## CC/C=C\C/C=C\C/C=C\CCCCCCCC(=O)O [Compound 19, α-linolenic acid]
[1]; Homo sapiens, THP-1, read-out: Average cell viability, THP-1, 1 ug/mL
  viability at 1 µg/mL: 102%
[1]; Homo sapiens, THP-1, read-out: Average cell viability, THP-1, 10 ug/mL
  viability at 10 µg/mL: 99%
[1]; Homo sapiens, THP-1, read-out: Average cell viability, THP-1, 50 ug/mL
  viability at 50 µg/mL: 72%
[1]; Homo sapiens, THP-1, read-out: Average cell viability, THP-1, 100 ug/mL
  viability at 100 µg/mL: 31%
[1]; THP-1, sample at 1 ug/mL
  THP-1 AVG: 1.16
[1]; THP-1, sample at 10 ug/mL
  THP-1 AVG: 1.12
[1]; THP-1, sample at 50 ug/mL
  THP-1 AVG: 0.82
[1]; THP-1, sample at 100 ug/mL
  THP-1 AVG: 0.35
[1]; 1 ug/mL
  Fold change in viability AVG: 1.16
[1]; 10 ug/mL
  Fold change in viability AVG: 1.12
[1]; 50 ug/mL
  Fold change in viability AVG: 0.82
[1]; 100 ug/mL
  Fold change in viability AVG: 0.35
In vitro
  viability at 72 h, 1 ug/mL: 109%
  viability at 72 h, 10 ug/mL: 105%
  viability at 72 h, 50 ug/mL: 77%
  viability at 72 h, 100 ug/mL: 21%
A549 (lung carcinoma); A549, sample at 1 ug/mL
  A549 AVG: 1.16
A549 (lung carcinoma); A549, sample at 10 ug/mL
  A549 AVG: 1.16
A549 (lung carcinoma); A549, sample at 50 ug/mL
  A549 AVG: 1.02
A549 (lung carcinoma); A549, sample at 100 ug/mL
  A549 AVG: 0.67
A549 (lung carcinoma); 1 ug/mL
  Fold change in viability AVG: 1.16
A549 (lung carcinoma); 10 ug/mL
  Fold change in viability AVG: 1.16
A549 (lung carcinoma); 50 ug/mL
  Fold change in viability AVG: 1.02
A549 (lung carcinoma); 100 ug/mL
  Fold change in viability AVG: 0.67
A549 (lung carcinoma); Homo sapiens, A549, read-out: Average cell viability, A549, 1 ug/mL
  viability at 1 µg/mL: 99%
A549 (lung carcinoma); Homo sapiens, A549, read-out: Average cell viability, A549, 10 ug/mL
  viability at 10 µg/mL: 100%
A549 (lung carcinoma); Homo sapiens, A549, read-out: Average cell viability, A549, 50 ug/mL
  viability at 50 µg/mL: 88%
A549 (lung carcinoma); Homo sapiens, A549, read-out: Average cell viability, A549, 100 ug/mL
  viability at 100 µg/mL: 57%
[2]; Homo sapiens, U373 MG, read-out: Average cell viability, U373, 1 ug/mL
  viability at 1 µg/mL: 116%
[2]; Homo sapiens, U373 MG, read-out: Average cell viability, U373, 10 ug/mL
  viability at 10 µg/mL: 108%
[2]; Homo sapiens, U373 MG, read-out: Average cell viability, U373, 50 ug/mL
  viability at 50 µg/mL: 57%
[2]; Homo sapiens, U373 MG, read-out: Average cell viability, U373, 100 ug/mL
  viability at 100 µg/mL: 10%
[2]; U373, sample at 1 ug/mL
  U373 AVG: 1.18
[2]; U373, sample at 10 ug/mL
  U373 AVG: 1.10
[2]; U373, sample at 50 ug/mL
  U373 AVG: 0.58
[2]; U373, sample at 100 ug/mL
  U373 AVG: 0.10
[2]; 1 ug/mL
  Fold change in viability AVG: 1.18
[2]; 10 ug/mL
  Fold change in viability AVG: 1.10
[2]; 50 ug/mL
  Fold change in viability AVG: 0.58
[2]; 100 ug/mL
  Fold change in viability AVG: 0.10
[3]; Homo sapiens, SK-OV-3, read-out: Average cell viability, SKOV, 1 ug/mL
  viability at 1 µg/mL: 117%
[3]; Homo sapiens, SK-OV-3, read-out: Average cell viability, SKOV, 10 ug/mL
  viability at 10 µg/mL: 111%
[3]; Homo sapiens, SK-OV-3, read-out: Average cell viability, SKOV, 50 ug/mL
  viability at 50 µg/mL: 101%
[3]; Homo sapiens, SK-OV-3, read-out: Average cell viability, SKOV, 100 ug/mL
  viability at 100 µg/mL: 83%
[3]; 1 ug/mL
  Fold change in viability AVG: 1.26
[3]; 10 ug/mL
  Fold change in viability AVG: 1.20
[3]; 50 ug/mL
  Fold change in viability AVG: 1.09
[3]; 100 ug/mL
  Fold change in viability AVG: 0.90
MDA-MB [4]; sample at 1 ug/mL
  MDA-MB AVG: 1.17
MDA-MB [4]; sample at 10 ug/mL
  MDA-MB AVG: 1.18
MDA-MB [4]; sample at 50 ug/mL
  MDA-MB AVG: 0.88
MDA-MB [4]; sample at 100 ug/mL
  MDA-MB AVG: 0.26
MDA-MB [4]; 1 ug/mL
  Fold change in viability AVG: 1.17
MDA-MB [4]; 10 ug/mL
  Fold change in viability AVG: 1.18
MDA-MB [4]; 50 ug/mL
  Fold change in viability AVG: 0.88
MDA-MB [4]; 100 ug/mL
  Fold change in viability AVG: 0.26
MDA-MB [5]; 1 ug/mL
  viability at 1 µg/mL: 108%
MDA-MB [5]; 10 ug/mL
  viability at 10 µg/mL: 108%
MDA-MB [5]; 50 ug/mL
  viability at 50 µg/mL: 81%
MDA-MB [5]; 100 ug/mL
  viability at 100 µg/mL: 24%
PC3; Homo sapiens, PC-3, read-out: Average cell viability, PC3, 1 ug/mL
  viability at 1 µg/mL: 105%
PC3; Homo sapiens, PC-3, read-out: Average cell viability, PC3, 10 ug/mL
  viability at 10 µg/mL: 103%
PC3; Homo sapiens, PC-3, read-out: Average cell viability, PC3, 50 ug/mL
  viability at 50 µg/mL: 88%
PC3; Homo sapiens, PC-3, read-out: Average cell viability, PC3, 100 ug/mL
  viability at 100 µg/mL: 11%
PC3; PC3, sample at 1 ug/mL
  PC3 AVG: 1.09
PC3; PC3, sample at 10 ug/mL
  PC3 AVG: 1.07
PC3; PC3, sample at 50 ug/mL
  PC3 AVG: 0.91
PC3; PC3, sample at 100 ug/mL
  PC3 AVG: 0.12
PC3; 1 ug/mL
  Fold change in viability AVG: 1.09
PC3; 10 ug/mL
  Fold change in viability AVG: 1.07
PC3; 50 ug/mL
  Fold change in viability AVG: 0.91
PC3; 100 ug/mL
  Fold change in viability AVG: 0.12
[6]; 1 ug/mL
  Fold change in viability AVG: 1.20
[6]; 10 ug/mL
  Fold change in viability AVG: 1.16
[6]; 50 ug/mL
  Fold change in viability AVG: 0.85
[6]; 100 ug/mL
  Fold change in viability AVG: 0.23
